Test results as given in paper PMC5218480 (PLoS ONE, 2017).

Tested on: MV-4-11 cells
Assay: Gene expression microarray analysis (Affymetrix PrimeView) and GSEA
Type: cell-based, human
Set-up: RFU PODN (11730768_x_at) / Fold change /veh PODN (11730768_x_at) / RFU LINC00158 (11744669_a_at) / Fold change /veh LINC00158 (11744669_a_at) / RFU DUSP10 (11751237_a_at) / Fold change /veh DUSP10 (11751237_a_at) / RFU ID3 (11757404_x_at) / Fold change /veh ID3 (11757404_x_at) / RFU PLEKHG5 (11737974_s_at) / Fold change /veh PLEKHG5 (11737974_s_at) / RFU LRRC4B (11730491_at) / Fold change /veh LRRC4B (11730491_at) / RFU GIMAP4 (11747438_a_at) / Fold change /veh GIMAP4 (11747438_a_at) / RFU KRT8 (11758183_x_at) / Fold change /veh KRT8 (11758183_x_at) / RFU CNN1 (11734310_a_at) / Fold change /veh CNN1 (11734310_a_at) / RFU VPS37D (11726825_at) / Fold change /veh VPS37D (11726825_at) / RFU C10orf10 (11716522_x_at) / Fold change /veh C10orf10 (11716522_x_at) / RFU KIR2DL2 /// KIR2DL4 /// KIR2DL5A /// KIR2DL5B /// KIR2DS1 /// KIR2DS2 /// KIR2DS3 /// KIR2DS4 /// KIR3DL3 /// KIR3DL3 /// KIR3DS1 (11738374_at) / Fold change /veh KIR2DL2 /// KIR2DL4 /// KIR2DL5A /// KIR2DL5B /// KIR2DS1 /// KIR2DS2 /// KIR2DS3 /// KIR2DS4 /// KIR3DL3 /// KIR3DL3 /// KIR3DS1 (11738374_at) / RFU C1QL1 (11718748_at) / Fold change /veh C1QL1 (11718748_at) / RFU TMPRSS4 (11747572_a_at) / Fold change /veh TMPRSS4 (11747572_a_at) / RFU HAMP (11756126_x_at) / Fold change /veh HAMP (11756126_x_at) / RFU RNFT2 (11725882_a_at) / Fold change /veh RNFT2 (11725882_a_at) / RFU NR4A2 (11747474_a_at) / Fold change /veh NR4A2 (11747474_a_at) / RFU ABCC12 (11746883_a_at) / Fold change /veh ABCC12 (11746883_a_at) / RFU TMEM136 (11760407_x_at) / Fold change /veh TMEM136 (11760407_x_at) / RFU CLDN22 /// WWC2 (11732394_at) / Fold change /veh CLDN22 /// WWC2 (11732394_at) / RFU HLA-DPB1 (11760878_x_at) / Fold change /veh HLA-DPB1 (11760878_x_at) / RFU SPINT1 (11716480_a_at) / Fold change /veh SPINT1 (11716480_a_at) / RFU GAP43 (11754022_s_at) / Fold change /veh GAP43 (11754022_s_at) / RFU A4GNT (11735810_at) / Fold change /veh A4GNT (11735810_at) / RFU PRB3 (11715151_x_at) / Fold change /veh PRB3 (11715151_x_at) / RFU TUBB4B (11761932_at) / Fold change /veh TUBB4B (11761932_at) / RFU CAPN14 (11732068_a_at) / Fold change /veh CAPN14 (11732068_a_at) / RFU TMCC2 (11721928_a_at) / Fold change /veh TMCC2 (11721928_a_at) / RFU IRGQ (11745062_a_at) / Fold change /veh IRGQ (11745062_a_at) / RFU FAM174B (11720279_a_at) / Fold change /veh FAM174B (11720279_a_at) / RFU TMPRSS4 (11748680_a_at) / Fold change /veh TMPRSS4 (11748680_a_at) / RFU FAM212B (11763350_a_at) / Fold change /veh FAM212B (11763350_a_at) / RFU PLEKHG5 (11743358_a_at) / Fold change /veh PLEKHG5 (11743358_a_at) / RFU ZSCAN30 (11745921_a_at) / Fold change /veh ZSCAN30 (11745921_a_at) / RFU CMKLR1 (11741424_a_at) / Fold change /veh CMKLR1 (11741424_a_at) / RFU LOC101060620 /// MAPK8IP1 (11723275_at) / Fold change /veh LOC101060620 /// MAPK8IP1 (11723275_at) / RFU SPTSSB (11747773_x_at) / Fold change /veh SPTSSB (11747773_x_at) / RFU PRSS12 (11739890_at) / Fold change /veh PRSS12 (11739890_at) / RFU BIN1 (11741810_x_at) / Fold change /veh BIN1 (11741810_x_at) / RFU WNT11 (11732464_a_at) / Fold change /veh WNT11 (11732464_a_at) / RFU C10orf10 (11716521_a_at) / Fold change /veh C10orf10 (11716521_a_at) / RFU C5orf56 (11738089_at) / Fold change /veh C5orf56 (11738089_at) / RFU CYB561 (11721691_x_at) / Fold change /veh CYB561 (11721691_x_at) / RFU ANKRD19P (11752326_a_at) / Fold change /veh ANKRD19P (11752326_a_at) / RFU OR2T12 /// OR2T33 /// OR2T8 (11738714_s_at) / Fold change /veh OR2T12 /// OR2T33 /// OR2T8 (11738714_s_at) / RFU VCAN (11748164_a_at) / Fold change /veh VCAN (11748164_a_at) / RFU JSRP1 (11732532_at) / Fold change /veh JSRP1 (11732532_at) / RFU KRTAP10-11 (11738290_x_at) / Fold change /veh KRTAP10-11 (11738290_x_at) / RFU MYO3A (11730013_a_at) / Fold change /veh MYO3A (11730013_a_at) / RFU EBF3 (11725865_a_at) / Fold change /veh EBF3 (11725865_a_at) / RFU CAMK2N1 (11719241_x_at) / Fold change /veh CAMK2N1 (11719241_x_at) / RFU C5orf56 (11738088_a_at) / Fold change /veh C5orf56 (11738088_a_at) / RFU OLFML3 (11715873_a_at) / Fold change /veh OLFML3 (11715873_a_at) / RFU LOC100653217 /// NTM (11731650_a_at) / Fold change /veh LOC100653217 /// NTM (11731650_a_at) / RFU MAPK11 (11762145_a_at) / Fold change /veh MAPK11 (11762145_a_at) / RFU FIZ1 (11724087_x_at) / Fold change /veh FIZ1 (11724087_x_at) / RFU OASL (11726364_x_at) / Fold change /veh OASL (11726364_x_at) / RFU SOX15 (11748057_x_at) / Fold change /veh SOX15 (11748057_x_at) / RFU CD79A (11719716_a_at) / Fold change /veh CD79A (11719716_a_at) / RFU HIST1H1D (11736915_at) / Fold change /veh HIST1H1D (11736915_at) / RFU CASKIN2 (11723855_a_at) / Fold change /veh CASKIN2 (11723855_a_at) / RFU LOC730098 (11760151_x_at) / Fold change /veh LOC730098 (11760151_x_at) / RFU OR4N2 (11742367_at) / Fold change /veh OR4N2 (11742367_at) / RFU PRRT2 (11749266_a_at) / Fold change /veh PRRT2 (11749266_a_at) / RFU SNX32 (11753110_a_at) / Fold change /veh SNX32 (11753110_a_at) / RFU CDHR5 (11726645_a_at) / Fold change /veh CDHR5 (11726645_a_at) / RFU RCAN1 (11760418_a_at) / Fold change /veh RCAN1 (11760418_a_at) / RFU FAM167A (11723789_a_at) / Fold change /veh FAM167A (11723789_a_at) / RFU FAM26E (11764081_at) / Fold change /veh FAM26E (11764081_at) / RFU ISYNA1 (11749810_s_at) / Fold change /veh ISYNA1 (11749810_s_at) / RFU ACY1 (11761880_at) / Fold change /veh ACY1 (11761880_at) / RFU 11764098_at / Fold change /veh 11764098_at / RFU SAMD14 (11745864_x_at) / Fold change /veh SAMD14 (11745864_x_at) / RFU NPB (11741838_a_at) / Fold change /veh NPB (11741838_a_at) / RFU TMPRSS6 (11731388_a_at) / Fold change /veh TMPRSS6 (11731388_a_at) / RFU KRTAP10-2 (11738614_at) / Fold change /veh KRTAP10-2 (11738614_at) / RFU ARHGAP8 /// PRR5-ARHGAP8 (11727945_x_at) / Fold change /veh ARHGAP8 /// PRR5-ARHGAP8 (11727945_x_at) / RFU KRTAP5-7 /// NADSYN1 (11734609_at) / Fold change /veh KRTAP5-7 /// NADSYN1 (11734609_at) / RFU RASL12 (11751679_a_at) / Fold change /veh RASL12 (11751679_a_at) / RFU CDKN2B (11736163_a_at) / Fold change /veh CDKN2B (11736163_a_at) / RFU PRF1 (11729649_at) / Fold change /veh PRF1 (11729649_at) / RFU, ZNF638 /// ZNF638-IT1 / Fold change vs veh, ZNF638 /// ZNF638-IT1 / RFU, PANK3 / Fold change vs veh, PANK3 / RFU, SH3YL1 / Fold change vs veh, SH3YL1 / RFU, ZEB2 / Fold change vs veh, ZEB2 / RFU, NRIP1 / Fold change vs veh, NRIP1 / RFU, PTTG1IP / Fold change vs veh, PTTG1IP / RFU, CAPN2 / Fold change vs veh, CAPN2 / RFU, MED14 / Fold change vs veh, MED14 / RFU, SNORA58 / Fold change vs veh, SNORA58 / RFU, C1orf63 / Fold change vs veh, C1orf63 / RFU, LRRFIP1 / Fold change vs veh, LRRFIP1 / RFU, NDUFAF7 / Fold change vs veh, NDUFAF7 / RFU, SLC12A2 / Fold change vs veh, SLC12A2 / RFU, IBTK / Fold change vs veh, IBTK / RFU, ESF1 / Fold change vs veh, ESF1 / Fold change vs veh, TMEM50B / RFU, TAOK1 / Fold change vs veh, TAOK1 / RFU, ACBD3 / Fold change vs veh, ACBD3 / RFU, TMA16 / Fold change vs veh, TMA16 / RFU, RWDD3 / Fold change vs veh, RWDD3 / RFU, BCAT1 / Fold change vs veh, BCAT1 / RFU, EDEM3 / Fold change vs veh, EDEM3 / RFU, TMEM33 / Fold change vs veh, TMEM33 / RFU, WDR75 / Fold change vs veh, WDR75 / RFU, AHCTF1 / Fold change vs veh, AHCTF1 / RFU, TFRC / Fold change vs veh, TFRC / RFU, ZDHHC17 / Fold change vs veh, ZDHHC17 / RFU, NOM1 / Fold change vs veh, NOM1 / RFU, ARL8B / Fold change vs veh, ARL8B / RFU, ZBTB11 / Fold change vs veh, ZBTB11 / RFU, TAMM41 / Fold change vs veh, TAMM41 / RFU, KIAA1704 /// LOC100996395 / Fold change vs veh, KIAA1704 /// LOC100996395 / RFU, ING1 / Fold change vs veh, ING1 / RFU, TRMT61B / Fold change vs veh, TRMT61B / RFU, FUBP3 / Fold change vs veh, FUBP3 / RFU, TP53 / Fold change vs veh, TP53 / RFU, TNKS2 / Fold change vs veh, TNKS2 / RFU, ZFP14 / Fold change vs veh, ZFP14 / RFU, ACTR2 / Fold change vs veh, ACTR2 / RFU, PPP3R1 / Fold change vs veh, PPP3R1 / RFU, PIK3R1 / Fold change vs veh, PIK3R1 / RFU, HNRNPA1 / Fold change vs veh, HNRNPA1 / RFU, RNF170 / Fold change vs veh, RNF170 / RFU, ZNF28 / Fold change vs veh, ZNF28 / RFU, RNGTT / Fold change vs veh, RNGTT / RFU, OGT / Fold change vs veh, OGT / RFU, BRD1 / Fold change vs veh, BRD1 / RFU, MARS / Fold change vs veh, MARS / RFU, ZNF655 / Fold change vs veh, ZNF655 / RFU, FAHD1 / Fold change vs veh, FAHD1 / RFU, BDP1 / Fold change vs veh, BDP1 / RFU, LRRCC1 / Fold change vs veh, LRRCC1 / RFU, ARID1A / Fold change vs veh, ARID1A / RFU, ZNF146 / Fold change vs veh, ZNF146 / RFU, ZNF330 / Fold change vs veh, ZNF330 / RFU, GPN3 / Fold change vs veh, GPN3 / RFU, C9orf123 / Fold change vs veh, C9orf123 / RFU, N4BP2L2 / Fold change vs veh, N4BP2L2 / RFU, ARFIP1 / Fold change vs veh, ARFIP1 / RFU, FAM179B / Fold change vs veh, FAM179B / RFU, BCL10 / Fold change vs veh, BCL10 / RFU, UHRF1BP1L / Fold change vs veh, UHRF1BP1L / RFU, BET1 / Fold change vs veh, BET1 / RFU, CNOT2 / Fold change vs veh, CNOT2 / RFU, ZNF268 / Fold change vs veh, ZNF268 / Fold change vs veh, ZNF507 / RFU, DGCR2 / Fold change vs veh, DGCR2 / RFU, WDSUB1 / Fold change vs veh, WDSUB1 / Fold change vs veh, HSP90B1 /// MIR3652 / RFU, ADSS / Fold change vs veh, ADSS / RFU, GK / Fold change vs veh, GK / RFU, ZNF148 / Fold change vs veh, ZNF148 / RFU, TAF9 / Fold change vs veh, TAF9 / RFU, SLC1A5 / Fold change vs veh, SLC1A5 / RFU, SLMO2 / Fold change vs veh, SLMO2 / RFU, ABCC4 / Fold change vs veh, ABCC4 / RFU, LOC101060439 /// RAP1B / Fold change vs veh, LOC101060439 /// RAP1B / RFU, RFX7 / Fold change vs veh, RFX7 / RFU, GTPBP10 / Fold change vs veh, GTPBP10 / RFU, CNEP1R1 / Fold change vs veh, CNEP1R1 / RFU, BIVM-ERCC5 /// ERCC5 / Fold change vs veh, BIVM-ERCC5 /// ERCC5 / RFU, ILF3 / Fold change vs veh, ILF3 / RFU 11762660_at / Fold change /veh 11762660_at / RFU VCAN (11757783_s_at) / Fold change /veh VCAN (11757783_s_at) / RFU DDX43 (11728927_at) / Fold change /veh DDX43 (11728927_at) / RFU KRT8 (11758188_x_at) / Fold change /veh KRT8 (11758188_x_at) / RFU NKD1 (11759106_at) / Fold change /veh NKD1 (11759106_at) / RFU SRD5A1 (11742802_a_at) / Fold change /veh SRD5A1 (11742802_a_at) / RFU TPSAB1 /// TPSB2 (11721975_s_at) / Fold change /veh TPSAB1 /// TPSB2 (11721975_s_at) / RFU GSTM3 (11746129_a_at) / Fold change /veh GSTM3 (11746129_a_at) / RFU IL23R (11737362_x_at) / Fold change /veh IL23R (11737362_x_at) / RFU TMEM51 (11727254_a_at) / Fold change /veh TMEM51 (11727254_a_at) / RFU PIWIL2 (11732686_x_at) / Fold change /veh PIWIL2 (11732686_x_at) / RFU ORM1 (11744905_x_at) / Fold change /veh ORM1 (11744905_x_at) / RFU CCDC152 (11743942_at) / Fold change /veh CCDC152 (11743942_at) / RFU ECM1 (11717891_a_at) / Fold change /veh ECM1 (11717891_a_at) / RFU IL23R (11748794_a_at) / Fold change /veh IL23R (11748794_a_at) / RFU TNFAIP8L3 (11732012_x_at) / Fold change /veh TNFAIP8L3 (11732012_x_at) / RFU MBOAT4 (11741988_at) / Fold change /veh MBOAT4 (11741988_at) / RFU 11764193_at / Fold change /veh 11764193_at / RFU TMEM53 (11763286_at) / Fold change /veh TMEM53 (11763286_at) / RFU MAGEB2 (11727129_at) / Fold change /veh MAGEB2 (11727129_at) / RFU TMEM200A (11744735_a_at) / Fold change /veh TMEM200A (11744735_a_at) / RFU CCDC152 (11751479_a_at) / Fold change /veh CCDC152 (11751479_a_at) / RFU FAM211A (11726209_a_at) / Fold change /veh FAM211A (11726209_a_at) / RFU RGS16 (11746705_a_at) / Fold change /veh RGS16 (11746705_a_at) / RFU VCAN (11755009_s_at) / Fold change /veh VCAN (11755009_s_at) / RFU RHOB (11743442_s_at) / Fold change /veh RHOB (11743442_s_at) / RFU RGS16 (11720943_a_at) / Fold change /veh RGS16 (11720943_a_at) / RFU RGS16 (11720944_at) / Fold change /veh RGS16 (11720944_at) / RFU, VPS4B / Fold change vs veh, VPS4B / RFU, CREB1 / Fold change vs veh, CREB1 / RFU, DNAJC13 / Fold change vs veh, DNAJC13 / RFU, GNAQ / Fold change vs veh, GNAQ / RFU, CDK5R1 / Fold change vs veh, CDK5R1 / RFU, ZRANB3 / Fold change vs veh, ZRANB3 / RFU, CUL4A / Fold change vs veh, CUL4A / RFU, CCNY / Fold change vs veh, CCNY / RFU, UFL1 / Fold change vs veh, UFL1 / RFU, COG3 / Fold change vs veh, COG3 / RFU, DIAPH2 / Fold change vs veh, DIAPH2 / RFU, SKA2 / Fold change vs veh, SKA2 / RFU, AFF3 / Fold change vs veh, AFF3 / RFU, LMF1 / Fold change vs veh, LMF1 / RFU, IPO11 / Fold change vs veh, IPO11 / RFU, DFFB / Fold change vs veh, DFFB / RFU, FOXP1 / Fold change vs veh, FOXP1 / RFU, CARD8 / Fold change vs veh, CARD8 / RFU, STRN3 / Fold change vs veh, STRN3 / RFU, ADK / Fold change vs veh, ADK / RFU, RASSF2 / Fold change vs veh, RASSF2 / RFU, WIPF1 / Fold change vs veh, WIPF1 / RFU, LARP1B / Fold change vs veh, LARP1B / RFU, RASA1 / Fold change vs veh, RASA1 / RFU, RB1 / Fold change vs veh, RB1 / RFU, PPFIA1 / Fold change vs veh, PPFIA1 / RFU, MAT2A / Fold change vs veh, MAT2A / RFU, CCT5 / Fold change vs veh, CCT5 / RFU, WDR92 / Fold change vs veh, WDR92 / RFU, CUX1 / Fold change vs veh, CUX1 / RFU, TTC7A / Fold change vs veh, TTC7A / RFU, TMEM135 / Fold change vs veh, TMEM135 / RFU, DEPTOR / Fold change vs veh, DEPTOR / RFU, CPM / Fold change vs veh, CPM / RFU, DNAJB6 / Fold change vs veh, DNAJB6 / RFU, CACNA2D3 / Fold change vs veh, CACNA2D3 / RFU, DTX4 / Fold change vs veh, DTX4 / RFU, TFCP2 / Fold change vs veh, TFCP2 / RFU, GMCL1 /// GMCL1P1 / Fold change vs veh, GMCL1 /// GMCL1P1 / RFU, AEBP2 / Fold change vs veh, AEBP2 / RFU, SNHG1 /// SNORD22 /// SNORD25 /// SNORD26 /// SNORD27 /// SNORD28 /// SNORD29 /// SNORD31 / Fold change vs veh, SNHG1 /// SNORD22 /// SNORD25 /// SNORD26 /// SNORD27 /// SNORD28 /// SNORD29 /// SNORD31 / Fold change (Aza/veh), C12orf56 (ProbeSet 11735607_a_at) / Fold change (ACY-1035/veh), C12orf56 (ProbeSet 11735607_a_at) / Fold change (Aza/veh), FGFR1OP (ProbeSet 11751329_s_at) / Fold change (ACY-1035/veh), FGFR1OP (ProbeSet 11751329_s_at) / Fold change (Aza/veh), VPS36 (ProbeSet 11739960_a_at) / Fold change (ACY-1035/veh), VPS36 (ProbeSet 11739960_a_at) / RFU SYPL1 (11715823_x_at) / Fold change /veh SYPL1 (11715823_x_at) / RFU IGFBP7 (11715501_s_at) / Fold change /veh IGFBP7 (11715501_s_at) / RFU REEP3 (11722064_at) / Fold change /veh REEP3 (11722064_at) / RFU IGLL1 (11728026_x_at) / Fold change /veh IGLL1 (11728026_x_at): dose or concentration left out as unconfirmed
Details: ProbeSet 11763166_a_at; LIST B

Nc1ncn([C@@H]2O[C@H](CO)[C@@H](O)[C@H]2O)c(=O)n1 [azacitidine]
RFU, MARS: 35.99 RFU
